Among the data in patent publication US10654832B2, “3-(benzoimidazol-2-YL)-indazole inhibitors of the Wnt signaling pathway and therapeutic uses thereof” (Samumed, LLC, priority 2013, dated 2020) are IC50 values, retold here.

This experiment concerns Wnt activity (wnt-responsive SP5 promoter luciferase reporter in SW480 cells). The experiment can be described thus: Wnt activity reporter assay (SP5 promoter-firefly luciferase in SW480 cells). Conditions: Homo sapiens; SW480 colon cancer cells with SP5 promoter luciferase reporter; 24 h after compound addition; half-log dilutions, three micromolar top concentration; normalized to DMSO; read-out: Wnt inhibition. The class given is cell-based. The source says:
The above synthesized compounds were screened using the assay procedure for Wnt activity described below.
Reporter cell lines were generated by stably transducing cells of cancer cell lines (e.g., colon cancer) with a lentiviral construct that include a wnt-responsive promoter driving expression of the firefly luciferase gene.
Lentiviral constructs were made in which the SP5 promoter, a promoter having eight TCF/LEF binding sites derived from the SP5 promoter, was linked upstream of the firefly luciferase gene. The lentiviral constructs included a hygromycin resistance gene as a selectable marker. The SP5 promoter construct was used to transduce SW480 cells, a colon cancer cell line having a mutated APC gene that generates a truncated APC protein, leading to de-regulated accumulation of β-catenin.
Cultured SW480 cells bearing a reporter construct were distributed at approximately 10,000 cells per well into 384 well multiwell plates. Compounds were then added to the wells in half-log dilutions using a three micromolar top concentration. A series of control wells for each cell type received only buffer and compound solvent. Twenty-four hours after the addition of compound, reporter activity for luciferases was assayed, for example, by addition of the BrightGlo luminescence reagent (Promega) and the Victor3 plate reader (Perkin Elmer). Readings were normalized to DMSO only treated cells, and normalized activities were then used for the IC50 calculations.

SMILES strings stand for the structures.

`O=C(Nc1cncc(-c2ccc3[nH]nc(-c4nc5c(-c6ccc(F)cc6)cccc5[nH]4)c3c2)c1)C1CCCC1` [Compound 45, N-(5-(3-(4-(4-Fluorophenyl)-1H-benzo[d]imidazol-2-yl)-1H-indazol-5-yl)pyridin-3-yl)cyclopentanecarboxamide]: the IC50 came out at 110 nM. Take `CC(C)CC(=O)Nc1cncc(-c2ccc3[nH]nc(-c4nc5ccccc5[nH]4)c3c2)c1` [Compound 218, N-(5-(3-(1H-Benzo[d]imidazol-2-yl)-1H-indazol-5-yl)pyridin-3-yl)-3-methylbutanamide]: the IC50 was determined as 37 nM. Then `O=C(Nc1cncc(-c2ccc3[nH]nc(-c4nc5c(-c6cccnc6)cccc5[nH]4)c3c2)c1)C1CCC1` [Compound 92, N-(5-(3-(4-(Pyridin-3-yl)-1H-benzo[d]imidazol-2-yl)-1H-indazol-5-yl)pyridin-3-yl)cyclobutanecarboxamide], with 8 nM. In the case of `Cc1cn(-c2cccc3[nH]c(-c4n[nH]c5ccc(-c6cncc(NC(=O)c7ccccc7)c6)cc45)nc23)cn1` [Compound 179, N-(5-(3-(4-(4-Methyl-1H-imidazol-1-yl)-1H-benzo[d]imidazol-2-yl)-1H-indazol-5-yl)pyridin-3-yl)benzamide], the IC50 turned out to be 10 nM. As for `CN(C)c1cncc(-c2ccc3[nH]nc(-c4nc5c(-c6ccccn6)cccc5[nH]4)c3c2)c1` [Compound 127, N,N-Dimethyl-5-(3-(4-(pyridin-2-yl)-1H-benzo[d]imidazol-2-yl)-1H-indazol-5-yl)pyridin-3-amine], the figure is 32 nM. As for `Cc1ccncc1-c1ccc2[nH]nc(-c3nc4ccccc4[nH]3)c2c1` [Compound 221, 3-(1H-Benzo[d]imidazol-2-yl)-5-(4-methylpyridin-3-yl)-1H-indazole], the figure is 317 nM; as for `CC(C)Nc1cncc(-c2ccc3[nH]nc(-c4nc5c(-c6cccnc6)cccc5[nH]4)c3c2)c1` [Compound 84, N-Isopropyl-5-(3-(4-(pyridin-3-yl)-1H-benzo[d]imidazol-2-yl)-1H-indazol-5-yl)pyridin-3-amine], 13 nM; as for `CC(C)C(=O)Nc1cncc(-c2ccc3[nH]nc(-c4nc5c(-c6ccc(F)cc6)cccc5[nH]4)c3c2)c1` [Compound 33, N-(5-(3-(4-(4-Fluorophenyl)-1H-benzo[d]imidazol-2-yl)-1H-indazol-5-yl)pyridin-3-yl)isobutyramide], 34 nM.

With `CCCC(=O)Nc1cncc(-c2ccc3[nH]nc(-c4nc5c(-c6ccc(F)cc6)cccc5[nH]4)c3c2)c1` [Compound 41, N-(5-(3-(4-(4-Fluorophenyl)-1H-benzo[d]imidazol-2-yl)-1H-indazol-5-yl)pyridin-3-yl)butyramide], the IC50 was 15 nM. As for `O=C(Nc1cncc(-c2ccc3[nH]nc(-c4nc5ccccc5[nH]4)c3c2)c1)c1ccccc1` [Compound 227, N-(5-(3-(1H-Benzo[d]imidazol-2-yl)-1H-indazol-5-yl)pyridin-3-yl) benzamide], the figure is 99 nM; as for `CCC(=O)Nc1cncc(-c2ccc3[nH]nc(-c4nc5c(-c6cccc(F)c6)cccc5[nH]4)c3c2)c1` [Compound 1, N-(5-(3-(4-(3-Fluorophenyl)-1H-benzo[d]imidazol-2-yl)-1H-indazol-5-yl)pyridin-3-yl)propionamide], 2 nM. As for `CC(C)Nc1cncc(-c2ccc3[nH]nc(-c4nc5c(-c6ccoc6)cccc5[nH]4)c3c2)c1` [Compound 276, 5-(3-(4-(Furan-3-yl)-1H-benzo[d]imidazol-2-yl)-1H-indazol-5-yl)-N-isopropylpyridin-3-amine], the figure is 16 nM; as for `CC(C)Nc1cncc(-c2ccc3[nH]nc(-c4nc5c(N6CCCCC6)cccc5[nH]4)c3c2)c1` [Compound 156, N-Isopropyl-5-(3-(4-(piperidin-1-yl)-1H-benzo[d]imidazol-2-yl)-1H-indazol-5-yl)pyridin-3-amine], 66 nM. For the compound `c1ccc(CNCc2cncc(-c3ccc4[nH]nc(-c5nc6ccccc6[nH]5)c4c3)c2)cc1` [Compound 239, 1-(5-(3-(1H-Benzo[d]imidazol-2-yl)-1H-indazol-5-yl)pyridin-3-yl)-N-benzylmethanamine], the IC50 was found to be 372 nM. Turning to `CCNCc1cncc(-c2ccc3[nH]nc(-c4nc5c(-c6ccsc6)cccc5[nH]4)c3c2)c1` [Compound 246, N-((5-(3-(4-(Thiophen-3-yl)-1H-benzo[d]imidazol-2-yl)-1H-indazol-5-yl)pyridin-3-yl)methyl)ethanamine], the IC50 was found to be 14 nM. On to `Cc1cn(-c2cccc3[nH]c(-c4n[nH]c5ccc(-c6cncc(NC(=O)CC(C)(C)C)c6)cc45)nc23)cn1` [Compound 184, 3,3-Dimethyl-N-(5-(3-(4-(4-methyl-1H-imidazol-1-yl)-1H-benzo[d]imidazol-2-yl)-1H-indazol-5-yl)pyridin-3-yl)butanamide], for which the IC50 amounted to 115 nM. For `CN(C)c1cncc(-c2ccc3[nH]nc(-c4nc5c(-c6cccc(F)c6)cccc5[nH]4)c3c2)c1` [Compound 7, 5-(3-(4-(3-Fluorophenyl)-1H-benzo[d]imidazol-2-yl)-1H-indazol-5-yl)-N,N-dimethylpyridin-3-amine], the IC50 worked out at 8 nM. As for `CN(C)Cc1cncc(-c2ccc3[nH]nc(-c4nc5c(-c6ccccn6)cccc5[nH]4)c3c2)c1` [Compound 133, N,N-Dimethyl-1-(5-(3-(4-(pyridin-2-yl)-1H-benzo[d]imidazol-2-yl)-1H-indazol-5-yl)pyridin-3-yl)methanamine], the figure is 127 nM; as for `CC(C)(C)C(=O)Nc1cncc(-c2ccc3[nH]nc(-c4nc5c(-c6ccncc6)cccc5[nH]4)c3c2)c1` [Compound 104, N-(5-(3-(4-(Pyridin-4-yl)-1H-benzo[d]imidazol-2-yl)-1H-indazol-5-yl)pyridin-3-yl)pivalamide], 65 nM; as for `CC(C)C(=O)Nc1cncc(-c2ccc3[nH]nc(-c4nc5c(-c6cccc(F)c6)cccc5[nH]4)c3c2)c1` [Compound 9, N-(5-(3-(4-(3-Fluorophenyl)-1H-benzo[d]imidazol-2-yl)-1H-indazol-5-yl)pyridin-3-yl)isobutyramide], 250 nM. Then `O=C(Nc1cncc(-c2ccc3[nH]nc(-c4nc5c(-c6ccccc6F)cccc5[nH]4)c3c2)c1)c1ccccc1` [Compound 59, N-(5-(3-(4-(2-Fluorophenyl)-1H-benzo[d]imidazol-2-yl)-1H-indazol-5-yl)pyridin-3-yl)benzamide], with 332 nM; and `CCNCc1cncc(-c2ccc3[nH]nc(-c4nc5ccccc5[nH]4)c3c2)c1` [Compound 222], with 235 nM. Then `Nc1cncc(-c2ccc3[nH]nc(-c4nc5c(-c6cccnc6)cccc5[nH]4)c3c2)c1` [Compound 75, 5-(3-(4-(Pyridin-3-yl)-1H-benzo[d]imidazol-2-yl)-1H-indazol-5-yl)pyridin-3-amine], with 6 nM; and `CN1CCN(c2cccc3[nH]c(-c4n[nH]c5ccc(-c6cncc(NC(=O)Cc7ccccc7)c6)cc45)nc23)CC1` [Compound 202, N-(5-(3-(4-(4-methylpiperazin-1-yl)-1H-benzo[d]imidazol-2-yl)-1H-indazol-5-yl)pyridin-3-yl)-2-phenylacetamide], with 248 nM. As to `O=C(Nc1cncc(-c2ccc3[nH]nc(-c4nc5c(-c6cccc(F)c6)cccc5[nH]4)c3c2)c1)C1CC1` [Compound 19, N-(5-(3-(4-(3-Fluorophenyl)-1H-benzo[d]imidazol-2-yl)-1H-indazol-5-yl)pyridin-3-yl)cyclopropanecarboxamide], the IC50 was 5 nM. With `CN1CCN(c2cccc3[nH]c(-c4n[nH]c5ccc(-c6cccnc6)cc45)nc23)CC1` [Compound 196, 3-(4-(4-Methylpiperazin-1-yl)-1H-benzo[d]imidazol-2-yl)-5-(pyridin-3-yl)-1H-indazole], the IC50 was determined as 28 nM. As for `CCCC(=O)Nc1cncc(-c2ccc3[nH]nc(-c4nc5c(-c6ccoc6)cccc5[nH]4)c3c2)c1` [Compound 281, N-(5-(3-(4-(Furan-3-yl)-1H-benzo[d]imidazol-2-yl)-1H-indazol-5-yl)pyridin-3-yl)butyramide], the figure is 25 nM; as for `CC(C)C(=O)Nc1cncc(-c2ccc3[nH]nc(-c4nc5c(-c6ccsc6)cccc5[nH]4)c3c2)c1` [Compound 249, N-(5-(3-(4-(Thiophen-3-yl)-1H-benzo[d]imidazol-2-yl)-1H-indazol-5-yl)pyridin-3-yl)isobutyramide], 13 nM; as for `O=C(Nc1cncc(-c2ccc3[nH]nc(-c4nc5c(-c6cccc(F)c6)cccc5[nH]4)c3c2)c1)C1CCCC1` [Compound 21, N-(5-(3-(4-(3-Fluorophenyl)-1H-benzo[d]imidazol-2-yl)-1H-indazol-5-yl)pyridin-3-yl)cyclopentanecarboxamide], 50 nM.

For the compound `CCCCC(=O)Nc1cncc(-c2ccc3[nH]nc(-c4nc5c(N6CCCCC6)cccc5[nH]4)c3c2)c1` [Compound 162, N-(5-(3-(4-(Piperidin-1-yl)-1H-benzo[d]imidazol-2-yl)-1H-indazol-5-yl)pyridin-3-yl)pentanamide], the IC50 came to 140 nM. For the compound `O=C(Nc1cncc(-c2ccc3[nH]nc(-c4nc5c(-c6ccc(F)cc6)cccc5[nH]4)c3c2)c1)C1CCC1` [Compound 44, N-(5-(3-(4-(4-Fluorophenyl)-1H-benzo[d]imidazol-2-yl)-1H-indazol-5-yl)pyridin-3-yl)cyclobutanecarboxamide], the IC50 worked out at 140 nM.
